Patent US10155021B2, “Antimicrobial 4-oxoquinolizines” (Emergent Product Development Gaithersburg Inc., priority 2011, dated 2018)
≈ marks a conversion by molar mass, not a printed value. Where two headings read alike, the source gives them in different places.

How the values were obtained:
P. aeruginosa 143-3-03 = assay: MIC, panel of quinolone-resistant strains (CLSI); assay type: cell-based; details: Pseudomonas aeruginosa, 143303; CIP I, POL R
A. baumannii J2 [1] = assay: Preliminary MBC without and with sub-inhibitory polymyxin B (Example 4); assay type: cell-based, Acinetobacter baumannii; details: Acinetobacter baumannii, J2, A. baumannii J2, without polymyxin B, preliminary MBC, read-out: MBC without PB
A. baumannii A329 [2] = assay: as above; assay type: cell-based, Acinetobacter baumannii; details: Acinetobacter baumannii, A329, A. baumannii A329, without polymyxin B, read-out: MBC without PB
Pseudomonas ssp PER-1 = assay: MIC, panel of quinolone-resistant strains (CLSI); assay type: cell-based, Pseudomonas spp; details: PER1, CIP R, ESBL
[3] = tested on: Acinetobacter sp. (H064200250); assay: MIC without and with sub-inhibitory polymyxin B (Example 4); assay type: cell-based; details: Acinetobacter, without polymyxin B
A. baumannii A401 = assay: Preliminary MBC without and with sub-inhibitory polymyxin B (Example 4); assay type: cell-based, Acinetobacter baumannii; details: Acinetobacter baumannii, A401, A baumannii A 401, without polymyxin B, preliminary MBC, read-out: MBC without PB
A. baumannii A329 [4] = assay: MIC without and with sub-inhibitory polymyxin B (Example 4); assay type: cell-based, Acinetobacter baumannii; details: Acinetobacter baumannii
[5] = tested on: resistant strains of A. baumannii and one strain of Acinetobacter sp.; assay: MIC without and with sub-inhibitory polymyxin B, whole panel / MIC ranges (Example 4; also strains not listed separately); assay type: cell-based; details: Acinetobacter baumannii
A. baumannii A472 [6] = assay: Preliminary MBC without and with sub-inhibitory polymyxin B (Example 4); assay type: cell-based, Acinetobacter baumannii; details: Acinetobacter baumannii, A472, A. baumannii A472, without polymyxin B, 2nd experiment, read-out: MBC without PB
[7] = tested on: Acinetobacter spp. H064200250; assay: MIC determination for Acinetobacter strains (Example 3); assay type: cell-based, Acinetobacter sp.; details: LEV R, CIP R, MRP R, IMP I
E. coli CTX-M-15 = assay: MIC, panel of quinolone-resistant strains (CLSI); assay type: cell-based; details: Escherichia coli, CTXM15; CIP R, ESBL
P. aeruginosa 1388-3-02 = assay: MIC, panel of quinolone-resistant strains (CLSI); assay type: cell-based; details: Pseudomonas aeruginosa, 1388302; CIP R, POL R
A. baumannii A489 [8] = assay: MIC without and with sub-inhibitory polymyxin B (Example 4); assay type: cell-based, Acinetobacter baumannii; details: Acinetobacter baumannii, A489, A. baumannii A489, without polymyxin B, read-out: MIC without PB
Klebsiella ssp KPC-3 = assay: MIC, panel of quinolone-resistant strains (CLSI); assay type: cell-based, Klebsiella spp; details: KPC3, CIP R, ESBL
[9] = tested on: Acinetobacter sp. (H064200250); assay: Preliminary MBC without and with sub-inhibitory polymyxin B (Example 4); assay type: cell-based; details: Acinetobacter, without polymyxin B, preliminary MBC, read-out: MBC without PB
Procedure, shortened: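 Bactericidal endpoint scored visually on plates incubated at 37° C (18-20 hours): the lowest concentration where growth fell about 90% versus the positive control, generally leaving one colony or none.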

E. coli 2906 = assay: MIC, panel of quinolone-resistant strains (CLSI); assay type: cell-based; details: Escherichia coli, CIP R
A. baumannii A 401 = assay: MIC determination for Acinetobacter strains (Example 3); assay type: cell-based; details: A401, LEV R, CIP R, AMK R, TET R
A. baumannii A473 = assay: Preliminary MBC without and with sub-inhibitory polymyxin B (Example 4); assay type: cell-based, Acinetobacter baumannii; details: Acinetobacter baumannii, A473, A. baumannii A473, without polymyxin B, read-out: MBC without PB
A. baumannii A489 [10] = assay: as above; assay type: cell-based, Acinetobacter baumannii; details: Acinetobacter baumannii, A489, A. baumannii A489, without polymyxin B, read-out: MBC without PB
A. baumannii A329 [11] = assay: MIC determination for Acinetobacter strains (Example 3); assay type: cell-based; details: LEV R, CIP R, MRP R, IMP R, AMK R, TET R
A. baumannii A472 [12] = assay: MIC without and with sub-inhibitory polymyxin B (Example 4); assay type: cell-based, Acinetobacter baumannii; details: for MIC: Acinetobacter baumannii, A472, A. baumannii A472, without polymyxin B, read-out: MIC without PB
A. baumannii A390 = assay: Preliminary MBC without and with sub-inhibitory polymyxin B (Example 4); assay type: cell-based, Acinetobacter baumannii; details: Acinetobacter baumannii, A390, A. baumannii A390, without polymyxin B, preliminary MBC, read-out: MBC without PB
A. baumannii J2 [13] = assay: MIC without and with sub-inhibitory polymyxin B (Example 4); assay type: cell-based, Acinetobacter baumannii; details: Acinetobacter baumannii, J2, A. baumannii J2, without polymyxin B, read-out: MIC without PB
A. baumannii A472 [14] = assay: MIC determination for Acinetobacter strains (Example 3); assay type: cell-based; details: LEV R, CIP R, MRP I, IMP I, AMK R, TET R
A. baumannii ATCC 19606 = assay: MIC without and with sub-inhibitory polymyxin B (Example 4); assay type: cell-based, Acinetobacter baumannii; details: Acinetobacter baumannii, ATCC19606, A. baumannii ATCC 19606; without polymyxin B; 1st experiment; read-out: MIC without PB
[15] = Acinetobacter spp. H064200250 (OXA51), 2nd experiment, MIC read with alamar blue, read-out: MIC without PB, read with alamar blue
[16] = Acinetobacter spp. H064200250 (OXA51), 2nd experiment, visual reading, read-out: MIC without PB
[17] = Acinetobacter spp. H064200250, 1st experiment, read-out: MIC without PB
[18] = A329, A. baumannii A329, without polymyxin B, 1st experiment, read-out: MIC without PB
[19] = A329, A. baumannii A329, without polymyxin B, 2nd experiment, visual reading, read-out: MIC without PB
[20] = Acinetobacter spp. H064200250 (OXA51), 2nd experiment
[21] = Acinetobacter spp. H064200250, 1st experiment

| Compound | MIC (P. aeruginosa 143-3-03) [µg/mL] | MBC (A. baumannii J2 [1]; 2nd experiment) [µg/mL] | MBC (A. baumannii J2 [1]; 1st experiment) [µg/mL] | MBC (A. baumannii A329 [2]; 2nd experiment) [µg/mL] | MIC (Pseudomonas ssp PER-1) [µg/mL] | MIC [3, 16] [µg/mL] | MIC [3, 17] [µg/mL] | MBC (A. baumannii A401; 2nd experiment) [µg/mL] | MBC (A. baumannii A401; 1st experiment) [µg/mL] | MIC (A. baumannii A329 [4]; [18]) [µg/mL] | MIC [7] [µg/mL] | MIC (E. coli CTX-M-15) [µg/mL] | MIC (P. aeruginosa 1388-3-02) [µg/mL] | MIC (Klebsiella ssp KPC-3) [µg/mL] | MBC [9, 20] [µg/mL] | MBC [9, 21] [µg/mL] | MIC (E. coli 2906) [µg/mL] | MIC (A. baumannii A 401) [µg/mL] | MBC (A. baumannii A489 [10]; 2nd experiment) [µg/mL] | MIC (A. baumannii A329 [11]) [µg/mL] | also measured |
| --- | --- | --- | --- | --- | --- | --- | --- | --- | --- | --- | --- | --- | --- | --- | --- | --- | --- | --- | --- | --- | --- |
| Cc1c(-c2ccc(CN)c(F)c2)ccn2c(=O)c(C(=O)O)cc(C3CC3)c12 [Compound 4, 8-(3-fluoro-4-aminomethyl-phenyl)-1-cyclopropyl-9-methyl-4-oxo-quinolizine-3-carboxylic acid] | 4 (≈ 10.9 µM) | 16 (≈ 43.7 µM) | 4 (≈ 10.9 µM) | 32 (≈ 87.3 µM) | 8 (≈ 21.8 µM) | 32 (≈ 87.3 µM) | 16 (≈ 43.7 µM) | 32 (≈ 87.3 µM) | 4 (≈ 10.9 µM) | 16 (≈ 43.7 µM) | 16 (≈ 43.7 µM) | 16 (≈ 43.7 µM) | 16 (≈ 43.7 µM) | 4 (≈ 10.9 µM) | 32 (≈ 87.3 µM) | 16 (≈ 43.7 µM) | 8 (≈ 21.8 µM) | 16 (≈ 43.7 µM) | 16 (≈ 43.7 µM) | 16 (≈ 43.7 µM) | MBC (A. baumannii A329 [2]; 1st experiment): 16 µg/mL (≈ 43.7 µM); MIC [3, 15]: 16 µg/mL (≈ 43.7 µM); MIC (A. baumannii A329 [4]; [19]): 16 µg/mL (≈ 43.7 µM); MIC ([5]; read-out: MIC range without PB 01-10-2008 n = 8, without polymyxin B, 1st experiment, 8 strains): 2 to 32 µg/mL (≈ 5.46 to 87.3 µM); MIC ([5]; without polymyxin B, 2nd experiment, 11 strains, read-out: MIC range without PB 14-10-2008 n = 11): 4 to 16 µg/mL (≈ 10.9 to 43.7 µM); MBC (A. baumannii A472 [6]): 16 µg/mL (≈ 43.7 µM); MIC (A. baumannii A489 [8]; 2nd experiment, visual reading): 16 µg/mL (≈ 43.7 µM); MBC (A. baumannii A473; 1st experiment): 4 µg/mL (≈ 10.9 µM); MBC (A. baumannii A489 [10]; 1st experiment): 4 µg/mL (≈ 10.9 µM); MIC (A. baumannii A472 [12]; 2nd experiment, visual reading): 16 µg/mL (≈ 43.7 µM); MBC (A. baumannii A390; 2nd experiment): 32 µg/mL (≈ 87.3 µM) |
| Cc1c(-c2cc(Cl)c(N)c(Cl)c2)ccn2c(=O)c(C(=O)O)cc(C3CC3)c12 [Compound 3, 8-(3,5-dichloro-4-amino-phenyl)-1-cyclopropyl-9-methyl-4-oxo-quinolizine-3-carboxylic acid] | 4 (≈ 9.92 µM) | 32 (≈ 79.4 µM) | 8 (≈ 19.8 µM) | 32 (≈ 79.4 µM) | 32 (≈ 79.4 µM) | 16 (≈ 39.7 µM) | 8 (≈ 19.8 µM) | 16 (≈ 39.7 µM) | 4 (≈ 9.92 µM) | 16 (≈ 39.7 µM) | 8 (≈ 19.8 µM) | > 32 | 8 (≈ 19.8 µM) | 8 (≈ 19.8 µM) | 16 (≈ 39.7 µM) | 8 (≈ 19.8 µM) | > 32 | 8 (≈ 19.8 µM) | 4 (≈ 9.92 µM) | 16 (≈ 39.7 µM) | MIC (A. baumannii J2 [13]; 1st experiment): 8 µg/mL (≈ 19.8 µM); MIC (A. baumannii J2 [13]; 2nd experiment, visual reading): 32 µg/mL (≈ 79.4 µM); MBC (A. baumannii A329 [2]; 1st experiment): 16 µg/mL (≈ 39.7 µM); MIC (A. baumannii A329 [4]; [19]): 16 µg/mL (≈ 39.7 µM); MIC (A. baumannii A329 [4]; A329, read-out: MIC +0.06 μg/ml PB, read with alamar blue, A. baumannii A329, +0.06 μg/ml polymyxin B, 2nd experiment, MIC read with alamar blue): 1 µg/mL; MIC (A. baumannii A472 [14]): 32 µg/mL (≈ 79.4 µM); MIC (A. baumannii A489 [8]; 1st experiment): 4 µg/mL (≈ 9.92 µM); MIC (A. baumannii A489 [8]; 2nd experiment, visual reading): 4 µg/mL (≈ 9.92 µM); MBC (A. baumannii A473; 1st experiment): 4 µg/mL (≈ 9.92 µM); MBC (A. baumannii A473; 2nd experiment): 8 µg/mL (≈ 19.8 µM); MBC (A. baumannii A489 [10]; 1st experiment): 2 µg/mL (≈ 4.96 µM); MIC ratio without/with polymyxin B (A. baumannii A472 [12]; A. baumannii A472, ratio MIC without PB to MIC + PB, PB […], 2nd experiment): ≥ 1020 µg/mL; MIC (A. baumannii A472 [12]; 1st experiment): 32 µg/mL (≈ 79.4 µM) |
| Cc1c(-c2ccc(N)cc2)ccn2c(=O)c(C(=O)O)cc(C3CC3)c12 [Compound 8, 8-(4-amino-phenyl)-1-cyclopropyl-9-methyl-4-oxo-quinolizine-3-carboxylic acid] | 2 (≈ 5.98 µM) | 4 (≈ 12 µM) | 8 (≈ 23.9 µM) | 8 (≈ 23.9 µM) | 16 (≈ 47.9 µM) | 4 (≈ 12 µM) | 2 (≈ 5.98 µM) | 8 (≈ 23.9 µM) | 8 (≈ 23.9 µM) | 16 (≈ 47.9 µM) | 2 (≈ 5.98 µM) | > 32 | 8 (≈ 23.9 µM) | 16 (≈ 47.9 µM) | 4 (≈ 12 µM) | 4 (≈ 12 µM) | > 32 | 32 (≈ 95.7 µM) | 8 (≈ 23.9 µM) | 16 (≈ 47.9 µM) | MIC (A. baumannii ATCC 19606): 1 µg/mL (≈ 2.99 µM); MIC (A. baumannii J2 [13]; 2nd experiment, visual reading): 4 µg/mL (≈ 12 µM); MIC [3, 15]: 8 µg/mL (≈ 23.9 µM); MIC ([5]; A. baumannii A14, without polymyxin B, 1st experiment, read-out: MIC without PB): 32 µg/mL (≈ 95.7 µM); MIC ([5]; NCTC13301, A. baumannii NCTC 13301, without polymyxin B, 1st experiment, read-out: MIC without PB): 32 µg/mL (≈ 95.7 µM); MIC ([5]; NCTC13301, A. baumannii NCTC 13301, without polymyxin B, 2nd experiment, visual reading, read-out: MIC without PB): 16 µg/mL (≈ 47.9 µM); MBC (A. baumannii A472 [6]): 4 µg/mL (≈ 12 µM); MIC (A. baumannii A472 [14]): 4 µg/mL (≈ 12 µM); MBC (A. baumannii A473; 2nd experiment): 4 µg/mL (≈ 12 µM); MIC (A. baumannii A472 [12]; 1st experiment): 4 µg/mL (≈ 12 µM); MIC (A. baumannii A472 [12]; 2nd experiment, visual reading): 4 µg/mL (≈ 12 µM); MBC (A. baumannii A390; 1st experiment): 8 µg/mL (≈ 23.9 µM) |
